In patent US20240043427A1 (Gilead Sciences, Inc., priority 2020, published 2024):
pEC50, pIC50: −log10 of the molar value.

How the values were obtained:
[1] = biological target: T1, CD73 (Homo sapiens (Human), UniProt P21589); assay type: biochemical; details: 1 mM NaH2PO4 in enzyme buffer, CD73 0.3 nM, AMP 15 uM
[2] = biological target: T1, CD73; experiment: MDA-MB-231 Cell Based CD73 Activity Assay (DMEM); details: MDA-MB-231-GFP cells, DMEM medium with 10% human plasma, 200 uM AMP

T1 sequence (P21589 27-574): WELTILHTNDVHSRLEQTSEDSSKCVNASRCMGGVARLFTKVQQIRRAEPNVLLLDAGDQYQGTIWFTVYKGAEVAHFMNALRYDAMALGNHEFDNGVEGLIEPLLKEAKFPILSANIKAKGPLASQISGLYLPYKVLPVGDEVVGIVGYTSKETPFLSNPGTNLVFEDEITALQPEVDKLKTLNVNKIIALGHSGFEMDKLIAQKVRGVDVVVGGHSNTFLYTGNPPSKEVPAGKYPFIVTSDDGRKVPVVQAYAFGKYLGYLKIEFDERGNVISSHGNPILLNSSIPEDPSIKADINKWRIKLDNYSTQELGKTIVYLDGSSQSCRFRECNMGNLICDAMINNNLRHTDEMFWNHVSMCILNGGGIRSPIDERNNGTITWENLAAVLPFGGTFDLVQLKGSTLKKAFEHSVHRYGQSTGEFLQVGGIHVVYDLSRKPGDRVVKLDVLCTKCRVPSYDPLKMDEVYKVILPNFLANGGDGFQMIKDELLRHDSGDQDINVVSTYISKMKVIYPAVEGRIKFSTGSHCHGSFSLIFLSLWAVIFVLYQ

pIC50 [1] | pEC50 [2] | SMILES
8.89 | 8.23 | C#CC1CCN(c2cc(-c3c[nH]c(=O)[nH]c3=O)nn3ccnc23)C1 (stereo not drawn) [Example 684, 5-(8-(3-ethynylpyrrolidin-1-yl)imidazo[1,2-b]pyridazin-6-yl)pyrimidine-2,4(1H,3H)-dione]
< 6.60 | 6.26 | CC(C)(O)C#Cc1cc(-c2c[nH]c(=O)[nH]c2=O)nn2ccnc12 [Example 685, 5-(8-(3-hydroxy-3-methylbut-1-yn-1-yl)imidazo[1,2-b]pyridazin-6-yl)pyrimidine-2,4(1H,3H)-dione]
7.35 | 6.54 | CC(C)(C)C#Cc1cc(-c2c[nH]c(=O)[nH]c2=O)nn2ccnc12 [Example 686, 5-(8-(3,3-dimethylbut-1-yn-1-yl)imidazo[1,2-b]pyridazin-6-yl)pyrimidine-2,4(1H,3H)-dione]
8.06 | 7.27 | O=c1[nH]cc(-c2cc(OCC(F)(F)CO)c3nccn3n2)c(=O)[nH]1 [Example 687, 5-(8-(2,2-difluoro-3-hydroxypropoxy)imidazo[1,2-b]pyridazin-6-yl)pyrimidine-2,4(1H,3H)-dione]
8.52 | 7.98 | O=c1[nH]cc(-c2cc(OCC(F)(F)C3CC3)c3nccn3n2)c(=O)[nH]1 [Example 689, 5-(8-(2-cyclopropyl-2,2-difluoroethoxy)imidazo[1,2-b]pyridazin-6-yl)pyrimidine-2,4(1H,3H)-dione]
7.90 | 7.66 | O=c1[nH]cc(-c2cc(OCC(F)(F)C(F)(F)F)c3nccn3n2)c(=O)[nH]1 [Example 690, 5-(8-(2,2,3,3,3-pentafluoropropoxy)imidazo[1,2-b]pyridazin-6-yl)pyrimidine-2,4(1H,3H)-dione]
7.36 | 6.46 | C[C@H](COc1cc(-c2c[nH]c(=O)[nH]c2=O)nn2ccnc12)c1ccccc1 [Example 691, (S)-5-(8-(2-phenylpropoxy)imidazo[1,2-b]pyridazin-6-yl)pyrimidine-2,4(1H,3H)-dione]
8.49 | 7.64 | O=c1[nH]cc(-c2cc(OCC(F)(F)c3ccccn3)c3nccn3n2)c(=O)[nH]1 [Example 692, 5-(8-(2,2-difluoro-2-(pyridin-2-yl)ethoxy)imidazo[1,2-b]pyridazin-6-yl)pyrimidine-2,4(1H,3H)-dione]
8.01 | 7.31 | Cn1ccnc1C(F)(F)COc1cc(-c2c[nH]c(=O)[nH]c2=O)nn2ccnc12 [Example 693, 5-(8-(2,2-difluoro-2-(1-methyl-1H-imidazol-2-yl)ethoxy)imidazo[1,2-b]pyridazin-6-yl)pyrimidine-2,4(1H,3H)-dione]
9.21 | 9.64 | CC(C)NC(=O)OCC(F)(F)COc1cc(-c2c[nH]c(=O)[nH]c2=O)nn2ccnc12 [Example 694, 3-((6-(2,4-dioxo-1,2,3,4-tetrahydropyrimidin-5-yl)imidazo[1,2-b]pyridazin-8-yl)oxy)-2,2-difluoropropyl isopropylcarbamate]
8.74 | 7.76 | O=c1[nH]cc(-c2cc(OCC(F)(F)COc3ccccn3)c3nccn3n2)c(=O)[nH]1 [Example 695, 5-(8-(2,2-difluoro-3-(pyridin-2-yloxy)propoxy)imidazo[1,2-b]pyridazin-6-yl)pyrimidine-2,4(1H,3H)-dione]
9.29 | 6.98 | O=C(OCC(F)(F)F)OCC(F)(F)COc1cc(-c2c[nH]c(=O)[nH]c2=O)nn2ccnc12 [Example 696, 3-((6-(2,4-dioxo-1,2,3,4-tetrahydropyrimidin-5-yl)imidazo[1,2-b]pyridazin-8-yl)oxy)-2,2-difluoropropyl (2,2,2-trifluoroethyl) carbonate]
9.19 | 9.57 | O=c1[nH]cc(-c2cc([C@H]3C[C@@H]3c3ccc4c(F)nn(CC(F)(F)F)c4c3)c3ncc(F)n3n2)c(=O)[nH]1 [Example 697, 5-(3-fluoro-8-((1S,2S)-2-(3-fluoro-1-(2,2,2-trifluoroethyl)-1H-indazol-6-yl)cyclopropyl)imidazo[1,2-b]pyridazin-6-yl)pyrimidine-2,4(1H,3H)-dione]
8.42 | 9.09 | CC1(C)C(=O)N(CC(F)(F)F)c2cc([C@H]3C[C@@H]3c3cc(-c4c[nH]c(=O)[nH]c4=O)nn4ccnc34)cnc21 [Example 698, 5-(8-((1S,2S)-2-(3,3-dimethyl-2-oxo-1-(2,2,2-trifluoroethyl)-2,3-dihydro-1H-pyrrolo[3,2-b]pyridin-6-yl)cyclopropyl)imidazo[1,2-b]pyridazin-6-yl)pyrimidine-2,4(1H,3H)-dione]
8.50 | 9.25 | CC1(C)C(=O)N(CC(F)(F)F)c2cc([C@H]3C[C@@H]3c3cc(-c4c[nH]c(=O)[nH]c4=O)nn4ccnc34)cnc21 [Example 699, 5-(8-((1S,2S)-2-(3,3-dimethyl-2-oxo-1-(2,2,2-trifluoroethyl)-2,3-dihydro-1H-pyrrolo[3,2-b]pyridin-6-yl)cyclopropyl)imidazo[1,2-b]pyridazin-6-yl)pyrimidine-2,4(1H,3H)-dione]
8.36 | 9.27 | CC1(C)C(=O)N(CC(F)(F)F)c2cc([C@H]3C[C@@H]3c3cc(-c4c[nH]c(=O)[nH]c4=O)nn4ccnc34)ncc21 [Example 700, 5-(8-((1S,2S)-2-(3,3-dimethyl-2-oxo-1-(2,2,2-trifluoroethyl)-2,3-dihydro-1H-pyrrolo[3,2-c]pyridin-6-yl)cyclopropyl)imidazo[1,2-b]pyridazin-6-yl)pyrimidine-2,4(1H,3H)-dione]
8.52 | 8.59 | O=c1[nH]cc(-c2cc([C@H]3C[C@@H]3c3ccc4c(C(F)(F)F)cn(CC(F)(F)F)c4n3)c3nccn3n2)c(=O)[nH]1 [Example 701, 5-(8-((1S,2S)-2-(1-(2,2,2-trifluoroethyl)-3-(trifluoromethyl)-1H-pyrrolo[2,3-b]pyridin-6-yl)cyclopropyl)imidazo[1,2-b]pyridazin-6-yl)pyrimidine-2,4(1H,3H)-dione]
8.77 | 9.59 | CC1(C)C(=O)N(CC(F)(F)F)c2cc([C@H]3C[C@@H]3c3cc(-c4c[nH]c(=O)[nH]c4=O)nn4c(F)cnc34)ccc21 [Example 702, 5-(8-((1S,2S)-2-(3,3-dimethyl-2-oxo-1-(2,2,2-trifluoroethyl)indolin-6-yl)cyclopropyl)-3-fluoroimidazo[1,2-b]pyridazin-6-yl)pyrimidine-2,4(1H,3H)-dione]
8.91 | 9.85 | CC1(C)C(=O)N(CC(F)(F)F)c2cc([C@H]3C[C@@H]3c3cc(-c4c[nH]c(=O)[nH]c4=O)nn4ccnc34)ccc21 [Example 703, 5-(8-((1S,2S)-2-(3,3-dimethyl-2-oxo-1-(2,2,2-trifluoroethyl)indolin-6-yl)cyclopropyl)imidazo[1,2-b]pyridazin-6-yl)pyrimidine-2,4(1H,3H)-dione]
9.14 | 9.44 | O=c1[nH]cc(-c2cc([C@H]3C[C@@H]3c3ccc4ccn(CC(F)(F)F)c4n3)c3nccn3n2)c(=O)[nH]1 [Example 704, 5-(8-((1S,2S)-2-(1-(2,2,2-trifluoroethyl)-1H-pyrrolo[2,3-b]pyridin-6-yl)cyclopropyl)imidazo[1,2-b]pyridazin-6-yl)pyrimidine-2,4(1H,3H)-dione]
9.40 | 10.15 | O=c1[nH]cc(-c2cc([C@H]3C[C@@H]3c3cc4c(ccn4CC(F)(F)F)cn3)c3nccn3n2)c(=O)[nH]1 [Example 705, 5-(8-((1S,2S)-2-(1-(2,2,2-trifluoroethyl)-1H-pyrrolo[3,2-c]pyridin-6-yl)cyclopropyl)imidazo[1,2-b]pyridazin-6-yl)pyrimidine-2,4(1H,3H)-dione]
9.48 | 9.82 | O=c1[nH]cc(-c2cc([C@H]3C[C@@H]3c3cc4c(cn3)c(F)cn4CC(F)(F)F)c3nccn3n2)c(=O)[nH]1 [Example 706, 5-(8-((1S,2S)-2-(3-fluoro-1-(2,2,2-trifluoroethyl)-1H-pyrrolo[3,2-c]pyridin-6-yl)cyclopropyl)imidazo[1,2-b]pyridazin-6-yl)pyrimidine-2,4(1H,3H)-dione]
8.58 | 8.05 | O=c1[nH]cc(-c2cc([C@H]3C[C@@H]3c3ccc4ccn(CC(F)(F)F)c(=O)c4c3)c3nccn3n2)c(=O)[nH]1 [Example 707, 5-(8-((1S,2S)-2-(1-oxo-2-(2,2,2-trifluoroethyl)-1,2-dihydroisoquinolin-7-yl)cyclopropyl)imidazo[1,2-b]pyridazin-6-yl)pyrimidine-2,4(1H,3H)-dione]
8.48 | 8.21 | O=c1[nH]cc(-c2cc([C@H]3C[C@@H]3c3ccc4c(c3)c(=O)ccn4CC(F)(F)F)c3nccn3n2)c(=O)[nH]1 [Example 708, 5-(8-((1S,2S)-2-(4-oxo-1-(2,2,2-trifluoroethyl)-1,4-dihydroquinolin-6-yl)cyclopropyl)imidazo[1,2-b]pyridazin-6-yl)pyrimidine-2,4(1H,3H)-dione]
8.91 | 9.40 | O=c1[nH]cc(-c2cc([C@H]3C[C@@H]3c3ccc4nccc(OCC(F)(F)F)c4c3)c3nccn3n2)c(=O)[nH]1 [Example 709, 5-(8-((1S,2S)-2-(4-(2,2,2-trifluoroethoxy)quinolin-6-yl)cyclopropyl)imidazo[1,2-b]pyridazin-6-yl)pyrimidine-2,4(1H,3H)-dione]
8.84 | 8.39 | O=c1[nH]cc(-c2cc([C@H]3C[C@@H]3c3ccc4cncc(OCC(F)(F)F)c4c3)c3nccn3n2)c(=O)[nH]1 [Example 710, 5-(8-((1S,2S)-2-(4-(2,2,2-trifluoroethoxy)isoquinolin-6-yl)cyclopropyl)imidazo[1,2-b]pyridazin-6-yl)pyrimidine-2,4(1H,3H)-dione]

SMILES | pIC50 [1] | pEC50 [2]
CCC(F)(F)COc1cc(-c2c[nH]c(=O)[nH]c2=O)nn2ccnc12 [Example 688, 5-(8-(2,2-difluorobutoxy)imidazo[1,2-b]pyridazin-6-yl)pyrimidine-2,4(1H,3H)-dione] | 8.15 | 7.47
